Active and inactive are the calls of the source.
Key:
[1] = target: X-box-binding protein 1 (Homo sapiens, UniProt P17861); format: functional, Cricetulus griseus;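 note: confirmatory dose-response counter-screen serving a CHOP assay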
[2] = target: Beta-galactosidase (Escherichia coli, UniProt Q8VNN2); assay: detection-enzyme interference by beta-gal modulators – biochemical, E. coli enzyme, set 3, artefact control for CCR6 antagonist project, dose response (AID 504712); format: functional
[3] = tested on: Vero; assay: viability of Vero cells under compound – cytotoxicity control for flavivirus capping enzyme inhibitors (AID 588742); format: functional; conditions: Chlorocebus sabaeus
[4] = target: T1, Short transient receptor potential channel 4 (Mus musculus, UniProt Q9QUQ5); assay: block of DAMGO-driven TRPC4 calcium entry – cell-based, HEK293 TRPC4/mu-opioid, Fluo-4 calcium, dose response (AID 434942); format: functional;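 note: potency of inhibitors blocking the TRPC4 calcium response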
T1 sequence (Q9QUQ5 whole entry): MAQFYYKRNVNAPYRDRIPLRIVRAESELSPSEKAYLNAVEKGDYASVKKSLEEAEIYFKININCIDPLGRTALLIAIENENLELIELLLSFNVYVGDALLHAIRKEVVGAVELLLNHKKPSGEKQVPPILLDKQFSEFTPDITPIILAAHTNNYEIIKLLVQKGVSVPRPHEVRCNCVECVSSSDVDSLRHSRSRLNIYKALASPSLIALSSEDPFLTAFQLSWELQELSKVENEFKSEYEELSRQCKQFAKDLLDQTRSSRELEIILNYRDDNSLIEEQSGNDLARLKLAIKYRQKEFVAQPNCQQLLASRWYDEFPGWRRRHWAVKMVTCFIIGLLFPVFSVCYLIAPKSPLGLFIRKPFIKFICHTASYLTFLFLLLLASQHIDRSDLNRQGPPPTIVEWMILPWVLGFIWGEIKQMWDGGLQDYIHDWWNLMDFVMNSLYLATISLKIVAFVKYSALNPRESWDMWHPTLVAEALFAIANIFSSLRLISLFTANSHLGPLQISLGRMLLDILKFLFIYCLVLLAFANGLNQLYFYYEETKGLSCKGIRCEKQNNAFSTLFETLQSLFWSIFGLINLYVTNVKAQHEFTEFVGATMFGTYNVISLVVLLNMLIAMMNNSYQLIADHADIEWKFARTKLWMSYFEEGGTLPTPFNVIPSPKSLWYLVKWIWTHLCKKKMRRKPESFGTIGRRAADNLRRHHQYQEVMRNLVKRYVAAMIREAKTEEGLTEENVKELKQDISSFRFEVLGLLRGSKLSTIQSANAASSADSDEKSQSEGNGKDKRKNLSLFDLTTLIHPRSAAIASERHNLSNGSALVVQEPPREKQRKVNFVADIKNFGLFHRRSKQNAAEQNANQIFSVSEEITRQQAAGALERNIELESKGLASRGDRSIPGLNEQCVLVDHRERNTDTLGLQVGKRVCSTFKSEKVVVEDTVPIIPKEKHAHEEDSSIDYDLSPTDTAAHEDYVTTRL

[5] = target: T2, Neuropeptide Y receptor type 2 (Homo sapiens, UniProt P49146); assay: Fluorescence-based cell-based high-throughput dose response assay for agonists of NPY-Y2. [Related pubchem assays: 1703 (Screening assay (CNGC inhibitors).), 1359 (Screening assay (NPY-Y2 potentiators or agonists).), 1304 (Screening assay (NPY-Y1 potentiators or agonists).), 1710 (Screening assay (NPY-Y2 agonists).), 1791 (Summary AID.)]; format: functional
T2 sequence (P49146 whole entry): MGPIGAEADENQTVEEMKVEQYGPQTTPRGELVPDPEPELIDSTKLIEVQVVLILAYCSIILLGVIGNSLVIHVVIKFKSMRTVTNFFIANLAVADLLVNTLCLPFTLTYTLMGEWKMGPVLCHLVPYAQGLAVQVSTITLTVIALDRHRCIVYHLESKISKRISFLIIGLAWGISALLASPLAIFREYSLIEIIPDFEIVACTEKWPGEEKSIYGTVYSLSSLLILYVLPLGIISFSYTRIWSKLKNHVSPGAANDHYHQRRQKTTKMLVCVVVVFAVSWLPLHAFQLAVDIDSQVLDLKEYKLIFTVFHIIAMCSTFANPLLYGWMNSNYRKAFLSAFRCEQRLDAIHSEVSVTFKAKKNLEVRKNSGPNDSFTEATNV

[6] = target: T3, Neuropeptide Y receptor type 1 (Homo sapiens, UniProt P25929); assay: Fluorescence-based counterscreen for agonists of NPY-Y2: cell-based high-throughput dose response assay for agonists of NPY-Y1.; format: functional
T3 sequence (P25929 whole entry): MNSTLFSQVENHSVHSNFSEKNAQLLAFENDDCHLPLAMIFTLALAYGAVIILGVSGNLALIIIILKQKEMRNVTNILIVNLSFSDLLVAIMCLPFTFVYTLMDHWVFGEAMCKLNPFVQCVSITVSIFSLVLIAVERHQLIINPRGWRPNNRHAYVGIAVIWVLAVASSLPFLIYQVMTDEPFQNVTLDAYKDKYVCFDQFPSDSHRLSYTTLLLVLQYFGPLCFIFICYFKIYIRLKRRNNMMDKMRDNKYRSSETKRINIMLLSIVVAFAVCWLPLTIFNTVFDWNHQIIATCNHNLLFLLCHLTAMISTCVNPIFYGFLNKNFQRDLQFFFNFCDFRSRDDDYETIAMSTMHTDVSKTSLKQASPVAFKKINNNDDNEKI

[7] = tested on: HEK293; assay: Fluorescence-based counterscreen for potentiators or agonists of NPY-Y2: cell-based high-throughput dose response assay to identify inhibitors of cyclic nucleotide gated ion channel (CNGC) activity. In this assay, the parental HEK293 cell line transfected with a cyclic-nucleotide gated ion channel (CNGC)-based cAMP sensor is used to measure inhibition of isoproterenol-induced CNGC activity by test compound.; format: functional; conditions: Homo sapiens;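 note: stimulus is 1 µM isoproterenol at EC100 plus PDE inhibitor Ro 20-1724 at 25 µM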
[8] = target: Eukaryotic translation initiation factor 4E (Mus musculus, UniProt P63073); assay: blockers of eIF4G binding by eIF4E – biochemical, TR-FRET, dose response (AID 855); format: functional;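 note: potency for disrupting eIF4E binding to eIF4GI seen as loss of FRET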
Sequence of Eukaryotic translation initiation factor 4E (P63073 whole entry, the tested form may be a part): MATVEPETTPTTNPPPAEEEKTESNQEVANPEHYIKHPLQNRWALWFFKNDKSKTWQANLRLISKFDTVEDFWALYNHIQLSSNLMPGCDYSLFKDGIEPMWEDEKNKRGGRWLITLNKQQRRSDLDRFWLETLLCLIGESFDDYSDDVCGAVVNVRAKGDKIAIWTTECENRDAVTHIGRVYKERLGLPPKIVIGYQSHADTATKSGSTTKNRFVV

[9] = luciferase reporter signal reduction – luminescence, H4-C neuroglioblastoma cells, dose response (AID 2458); format: functional, cell-based;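 note: H4 neuroglioblastoma cells stably carrying a luciferase reporter gene fusion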
[10] = alpha-synuclein stem-loop luciferase translation blockers – H4 neuroglioma cells, luminescence, confirmation (AID 1988); format: functional, cell-based
[11] = Luminescence Cell-Based Dose Response HTS to Identify Inhibitors of 5'UTR Stem-Loop Driven Prion Protein mRNA Translation in H4 Neuroglioblastoma Cells. [Related pubchem assays: 1827 (Project Summary), 1813 (Primary HTS)]; format: functional
[12] = luciferase reporter signal suppression in cells – H4 neuroglioma cells, luminescence, dose response (AID 1990); format: functional, cell-based
[13] = alpha-synuclein stem-loop translation blockers – luminescence, H4 neuroglioblastoma cells, dose confirmation, confirmation (AID 2454); format: functional, cell-based;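 note: H4 neuroglioblastoma cells carrying an alpha-synuclein 5'UTR luciferase reporter; potency for inhibition of the luciferase signal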
[14] = cells; format: functional, cell-based
[15] = tested on: J774.A1; assay: Confirmation of image-based Screening Assay for Inhibitors of Phagocytosis. [Related pubchem assays (depositor defined):AID1029, AID1643]; format: functional, cell-based; conditions: Mus musculus
[16] = target: Intestinal-type alkaline phosphatase (Homo sapiens, UniProt P09923); assay: Dose Response confirmation of uHTS hits from a small molecule inhibitors of human intestinal alkaline phosphatase via a luminescent assay. [Related pubchem assays (depositor defined):AID2544, AID2574]; format: functional
Sequence of Intestinal-type alkaline phosphatase (P09923 whole entry): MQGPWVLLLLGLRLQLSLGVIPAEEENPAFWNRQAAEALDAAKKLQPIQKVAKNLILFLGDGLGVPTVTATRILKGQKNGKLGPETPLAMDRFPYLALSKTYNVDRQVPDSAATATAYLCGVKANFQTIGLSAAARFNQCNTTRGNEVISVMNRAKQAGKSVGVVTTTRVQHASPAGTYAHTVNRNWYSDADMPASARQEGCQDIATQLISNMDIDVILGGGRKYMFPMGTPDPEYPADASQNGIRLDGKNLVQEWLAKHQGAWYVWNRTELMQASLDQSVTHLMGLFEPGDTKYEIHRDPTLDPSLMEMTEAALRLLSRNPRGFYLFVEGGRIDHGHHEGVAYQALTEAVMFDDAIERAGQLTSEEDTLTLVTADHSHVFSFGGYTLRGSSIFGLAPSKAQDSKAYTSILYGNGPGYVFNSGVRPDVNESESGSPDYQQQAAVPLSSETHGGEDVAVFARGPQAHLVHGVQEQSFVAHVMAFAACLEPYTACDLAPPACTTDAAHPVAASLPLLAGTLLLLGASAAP

Sequence of Beta-galactosidase (Q8VNN2 whole entry): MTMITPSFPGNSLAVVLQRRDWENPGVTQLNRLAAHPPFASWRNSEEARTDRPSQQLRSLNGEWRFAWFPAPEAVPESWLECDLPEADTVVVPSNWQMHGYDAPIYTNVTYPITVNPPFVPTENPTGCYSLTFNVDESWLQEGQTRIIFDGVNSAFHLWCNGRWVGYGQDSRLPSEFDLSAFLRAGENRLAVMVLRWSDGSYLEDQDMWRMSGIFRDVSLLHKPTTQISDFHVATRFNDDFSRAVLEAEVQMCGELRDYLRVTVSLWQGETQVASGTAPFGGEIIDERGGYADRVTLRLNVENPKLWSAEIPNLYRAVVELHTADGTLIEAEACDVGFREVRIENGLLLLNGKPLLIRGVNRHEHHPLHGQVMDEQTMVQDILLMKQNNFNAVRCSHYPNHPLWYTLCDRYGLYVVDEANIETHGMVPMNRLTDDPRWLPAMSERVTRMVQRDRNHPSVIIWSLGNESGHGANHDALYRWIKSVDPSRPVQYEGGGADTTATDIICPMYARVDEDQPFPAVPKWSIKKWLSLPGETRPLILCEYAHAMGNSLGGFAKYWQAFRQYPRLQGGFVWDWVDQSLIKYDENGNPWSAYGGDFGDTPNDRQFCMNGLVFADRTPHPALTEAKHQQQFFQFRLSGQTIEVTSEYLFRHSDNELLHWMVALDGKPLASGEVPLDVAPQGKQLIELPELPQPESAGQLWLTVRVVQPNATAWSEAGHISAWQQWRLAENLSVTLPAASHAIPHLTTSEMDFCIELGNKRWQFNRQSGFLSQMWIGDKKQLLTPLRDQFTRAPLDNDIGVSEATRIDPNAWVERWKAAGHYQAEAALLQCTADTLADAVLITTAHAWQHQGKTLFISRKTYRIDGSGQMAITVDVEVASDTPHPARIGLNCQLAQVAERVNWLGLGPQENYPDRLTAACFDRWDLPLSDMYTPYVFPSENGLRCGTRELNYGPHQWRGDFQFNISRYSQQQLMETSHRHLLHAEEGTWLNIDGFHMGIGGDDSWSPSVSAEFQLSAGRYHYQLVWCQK
Sequence of X-box-binding protein 1 (P17861 whole entry): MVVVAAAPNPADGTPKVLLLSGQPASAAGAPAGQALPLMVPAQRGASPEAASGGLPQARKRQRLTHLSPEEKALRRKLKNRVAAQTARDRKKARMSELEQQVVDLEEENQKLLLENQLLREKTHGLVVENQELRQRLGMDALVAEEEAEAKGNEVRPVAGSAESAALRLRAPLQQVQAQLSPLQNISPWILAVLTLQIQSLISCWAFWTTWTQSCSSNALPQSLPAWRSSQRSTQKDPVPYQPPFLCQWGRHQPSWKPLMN

## CCCCCCn1c(SCCC)nc2c1c(=O)[nH]c(=O)n2C
[1]
  Absolute IC50 (XBP1): 10 µM

## O=C(N/N=C/c1cc([N+](=O)[O-])ccc1O)Nc1ccccc1
[2]
  IC50: > 66.6 µM (inactive)
[3]
  CC50: 35.1 µM (active)

## Cc1cccc(N2CCc3c2nc2ccccc2c3N)c1
[4]
  EC50: 1.06 µM (active)
[5]
  EC50: 3.43 µM (active)
[6]
  EC50: 3.07 µM (active)
[7]
  EC50: 9.3 µM (active)
[8]
  IC50: > 64 µM (inactive)

## COc1ccc(NS(=O)(=O)c2cc(C)ccc2NC(=O)c2cc(C)oc2C)cc1
[9]
  EC50: 0.651 µM (active)
[10]
  EC50: < 0.1 µM (active)
[11]
  EC50: 0.173 µM (active)
[12]
  EC50: 7.02 µM (active)
[13]
  EC50: 1.11 µM (active)
[14]
  EC50: 1.07 µM (active)
[15]
  IC50: 0.0632 µM (active)

## Cc1ccc(S(=O)(=O)N(CC(=O)Nc2ccc(C)cc2C)C(=O)N2CCN(C)CC2)cc1
[16]
  IC50: > 100 µM (inactive)

Reference: ChEMBL document CHEMBL1201862, “PubChem BioAssay data set” (2004)
